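Briefly, cells in 96-well plates were exposed to five compound concentrations for 48 h, and endpoints were estimated by linear interpolation. TGI marks complete inhibition of growth.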
Columns and labels:
Assay in all cases: NCI tumour cell line growth inhibition, 48 h
NCI-H23 lung = system: NCI-H23 lung
SF-295 CNS = system: SF-295 CNS
RXF 393 renal = system: RXF 393 renal
HOP-92 NSCLC = system: HOP-92 NSCLC
MDA-N = system: MDA-N
NCI/ADR-RES ovarian = system: NCI/ADR-RES ovarian
SK-MEL-5 melanoma = system: SK-MEL-5 melanoma
HS 578T breast = system: HS 578T breast
HL-60(TB) leukemia = system: HL-60(TB) leukemia
MDA-MB-231 breast = system: MDA-MB-231 breast

| Compound | TGI (NCI-H23 lung) | TGI (SF-295 CNS) | TGI (RXF 393 renal) | TGI (HOP-92 NSCLC) | TGI (MDA-N) | TGI (NCI/ADR-RES ovarian) | TGI (SK-MEL-5 melanoma) | TGI (HS 578T breast) | TGI (HL-60(TB) leukemia) | TGI (MDA-MB-231 breast) |
| --- | --- | --- | --- | --- | --- | --- | --- | --- | --- | --- |
| COC(=O)c1c2c(cc3c1CC1(Cc4cc5c(c(C=O)c4C1)CCCC5)C3)CCCC2 (stereo not given) | > 100 µM | > 100 µM | > 100 µM | > 100 µM | > 100 µM | > 100 µM | > 100 µM | > 100 µM | 59.9 µM | > 100 µM |
| O=C(CN1CCN(Cc2ccccc2)CC1)c1ccc2[nH]c(=O)oc2c1 | > 100 µM | > 100 µM | > 100 µM | > 100 µM | > 100 µM | > 100 µM | > 100 µM | > 100 µM | > 100 µM | > 100 µM |
| CN(C)c1ccc(/C=c2/c3ccccc3n3c2c2ccccc2[n+]3C)cc1 | 3.45 µM | 13.1 µM | 4.47 µM | 1.92 µM | 1.89 µM | 32.8 µM | 0.659 µM | 4.42 µM | 0.428 µM | 2.42 µM |
| N#Cc1c(N2CCCC2)nsc1NCc1ccccc1 | > 100 µM | > 100 µM | > 100 µM | > 100 µM | > 100 µM | > 100 µM | > 100 µM | > 100 µM | > 100 µM | > 100 µM |
| COC(=O)CCc1cc(OC)c(O)c(C(Cc2ccc(OC)c(OC)c2)C(=O)OC)c1 (stereo not given) | > 100 µM | > 100 µM | > 100 µM | > 100 µM | > 100 µM | > 100 µM | > 100 µM | > 100 µM | > 100 µM | > 100 µM |
